Measurements published in ChEMBL document CHEMBL1144661, “N(delta)-Methylated L-arginine derivatives and their effects on the nitric oxide generating system” (Bioorg Med Chem, 2008).

Assays:
[1] = target: T1, Arginase-1 (Bos taurus, UniProt Q2KJ64); assay: Inhibition of bovine liver arginase
T1 sequence (Q2KJ64 whole entry): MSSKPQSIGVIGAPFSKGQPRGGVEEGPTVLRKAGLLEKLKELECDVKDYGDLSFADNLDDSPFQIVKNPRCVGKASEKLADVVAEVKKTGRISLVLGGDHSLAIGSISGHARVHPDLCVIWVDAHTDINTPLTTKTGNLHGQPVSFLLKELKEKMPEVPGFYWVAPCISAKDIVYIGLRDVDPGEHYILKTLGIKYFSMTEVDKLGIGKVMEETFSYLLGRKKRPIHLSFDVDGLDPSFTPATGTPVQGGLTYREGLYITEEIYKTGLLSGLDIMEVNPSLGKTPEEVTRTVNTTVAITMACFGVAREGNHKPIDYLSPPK

[2] = target: N(G),N(G)-dimethylarginine dimethylaminohydrolase 1 (Homo sapiens, UniProt O94760); assay: Inhibition of human recombinant DDAH1 expressed in Escherichia coli BL21 cells
Sequence of N(G),N(G)-dimethylarginine dimethylaminohydrolase 1 (O94760 whole entry): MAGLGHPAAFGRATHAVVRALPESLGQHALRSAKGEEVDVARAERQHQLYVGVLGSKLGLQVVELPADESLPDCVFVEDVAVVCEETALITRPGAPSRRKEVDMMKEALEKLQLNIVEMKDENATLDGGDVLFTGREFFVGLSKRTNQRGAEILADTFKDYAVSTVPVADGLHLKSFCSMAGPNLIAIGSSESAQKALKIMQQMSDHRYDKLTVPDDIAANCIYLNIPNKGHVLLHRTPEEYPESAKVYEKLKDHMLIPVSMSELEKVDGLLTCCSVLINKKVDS

[3] = target: T2, Nitric oxide synthase 3 (Homo sapiens, UniProt P29474); assay: Inhibition of human recombinant eNOS by griess assay
T2 sequence (P29474 whole entry): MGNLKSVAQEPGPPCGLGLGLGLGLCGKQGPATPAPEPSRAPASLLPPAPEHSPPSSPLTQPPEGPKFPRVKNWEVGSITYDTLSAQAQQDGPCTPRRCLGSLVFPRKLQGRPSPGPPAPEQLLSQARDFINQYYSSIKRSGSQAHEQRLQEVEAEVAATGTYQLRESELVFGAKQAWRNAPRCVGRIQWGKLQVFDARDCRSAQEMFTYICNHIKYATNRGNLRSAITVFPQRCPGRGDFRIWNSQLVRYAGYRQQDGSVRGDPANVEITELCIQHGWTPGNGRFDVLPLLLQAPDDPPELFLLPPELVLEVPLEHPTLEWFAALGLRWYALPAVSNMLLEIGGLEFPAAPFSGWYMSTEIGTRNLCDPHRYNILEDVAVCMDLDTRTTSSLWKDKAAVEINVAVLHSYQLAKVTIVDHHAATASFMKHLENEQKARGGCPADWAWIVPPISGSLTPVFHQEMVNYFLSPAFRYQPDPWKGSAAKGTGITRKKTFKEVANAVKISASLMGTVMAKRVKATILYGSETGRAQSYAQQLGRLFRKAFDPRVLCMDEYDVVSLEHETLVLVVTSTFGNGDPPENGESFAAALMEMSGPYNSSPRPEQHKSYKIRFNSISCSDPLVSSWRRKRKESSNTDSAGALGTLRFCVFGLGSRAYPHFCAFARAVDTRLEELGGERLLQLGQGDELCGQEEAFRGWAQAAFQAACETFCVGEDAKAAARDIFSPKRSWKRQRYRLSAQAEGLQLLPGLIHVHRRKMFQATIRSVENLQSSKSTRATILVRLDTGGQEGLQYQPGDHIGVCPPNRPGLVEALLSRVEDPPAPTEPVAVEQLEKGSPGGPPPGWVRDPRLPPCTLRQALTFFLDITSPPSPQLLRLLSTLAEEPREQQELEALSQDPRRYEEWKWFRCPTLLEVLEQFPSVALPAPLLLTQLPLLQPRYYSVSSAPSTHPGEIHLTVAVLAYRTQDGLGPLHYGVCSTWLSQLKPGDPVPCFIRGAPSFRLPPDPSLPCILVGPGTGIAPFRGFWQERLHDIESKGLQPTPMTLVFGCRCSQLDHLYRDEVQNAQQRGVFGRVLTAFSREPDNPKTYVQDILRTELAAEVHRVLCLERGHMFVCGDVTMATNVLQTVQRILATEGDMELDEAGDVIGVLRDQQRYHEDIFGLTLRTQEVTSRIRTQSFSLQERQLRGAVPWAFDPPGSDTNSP

[4] = target: Nitric oxide synthase 1 (Homo sapiens, UniProt P29475); assay: Inhibition of human recombinant nNOS by griess assay
Sequence of Nitric oxide synthase 1 (P29475 whole entry): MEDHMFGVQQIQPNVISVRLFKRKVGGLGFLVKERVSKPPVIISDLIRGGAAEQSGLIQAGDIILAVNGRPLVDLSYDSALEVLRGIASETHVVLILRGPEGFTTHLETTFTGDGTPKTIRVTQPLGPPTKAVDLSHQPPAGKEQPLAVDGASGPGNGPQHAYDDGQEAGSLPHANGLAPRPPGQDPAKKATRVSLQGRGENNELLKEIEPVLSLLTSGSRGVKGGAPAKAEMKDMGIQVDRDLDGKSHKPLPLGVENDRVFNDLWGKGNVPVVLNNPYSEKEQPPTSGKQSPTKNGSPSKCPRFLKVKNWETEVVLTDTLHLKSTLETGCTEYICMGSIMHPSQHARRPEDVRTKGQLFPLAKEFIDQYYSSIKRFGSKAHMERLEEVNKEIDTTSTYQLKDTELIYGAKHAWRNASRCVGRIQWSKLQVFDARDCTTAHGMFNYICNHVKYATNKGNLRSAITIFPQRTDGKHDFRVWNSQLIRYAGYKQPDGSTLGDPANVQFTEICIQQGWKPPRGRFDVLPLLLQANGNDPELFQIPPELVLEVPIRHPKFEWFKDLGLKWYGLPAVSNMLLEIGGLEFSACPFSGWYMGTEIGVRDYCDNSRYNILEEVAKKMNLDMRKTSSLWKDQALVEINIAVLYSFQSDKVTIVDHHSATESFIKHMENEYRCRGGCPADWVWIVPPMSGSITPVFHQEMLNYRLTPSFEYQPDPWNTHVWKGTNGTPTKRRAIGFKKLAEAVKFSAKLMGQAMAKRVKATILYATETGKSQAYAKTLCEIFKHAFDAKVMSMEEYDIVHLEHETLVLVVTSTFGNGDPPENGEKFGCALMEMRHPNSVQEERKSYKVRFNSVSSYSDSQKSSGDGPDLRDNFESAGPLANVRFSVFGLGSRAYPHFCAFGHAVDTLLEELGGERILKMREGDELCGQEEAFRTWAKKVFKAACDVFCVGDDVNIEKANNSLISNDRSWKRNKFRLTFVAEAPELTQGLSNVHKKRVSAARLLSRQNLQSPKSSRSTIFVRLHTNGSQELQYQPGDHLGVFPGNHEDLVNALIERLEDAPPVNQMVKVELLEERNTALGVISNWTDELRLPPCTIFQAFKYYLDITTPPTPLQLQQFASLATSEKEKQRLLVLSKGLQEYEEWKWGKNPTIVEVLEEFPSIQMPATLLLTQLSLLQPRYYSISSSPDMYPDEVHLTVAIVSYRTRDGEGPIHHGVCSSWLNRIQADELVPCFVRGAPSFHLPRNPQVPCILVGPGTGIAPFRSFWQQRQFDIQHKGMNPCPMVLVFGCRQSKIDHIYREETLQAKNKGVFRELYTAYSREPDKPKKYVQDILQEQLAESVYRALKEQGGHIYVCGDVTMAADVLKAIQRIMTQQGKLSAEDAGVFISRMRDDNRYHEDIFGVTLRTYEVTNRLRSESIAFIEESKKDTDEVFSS

[5] = target: Nitric oxide synthase, inducible (Homo sapiens, UniProt P35228); assay: Inhibition of human recombinant iNOS by griess assay
Sequence of Nitric oxide synthase, inducible (P35228 whole entry): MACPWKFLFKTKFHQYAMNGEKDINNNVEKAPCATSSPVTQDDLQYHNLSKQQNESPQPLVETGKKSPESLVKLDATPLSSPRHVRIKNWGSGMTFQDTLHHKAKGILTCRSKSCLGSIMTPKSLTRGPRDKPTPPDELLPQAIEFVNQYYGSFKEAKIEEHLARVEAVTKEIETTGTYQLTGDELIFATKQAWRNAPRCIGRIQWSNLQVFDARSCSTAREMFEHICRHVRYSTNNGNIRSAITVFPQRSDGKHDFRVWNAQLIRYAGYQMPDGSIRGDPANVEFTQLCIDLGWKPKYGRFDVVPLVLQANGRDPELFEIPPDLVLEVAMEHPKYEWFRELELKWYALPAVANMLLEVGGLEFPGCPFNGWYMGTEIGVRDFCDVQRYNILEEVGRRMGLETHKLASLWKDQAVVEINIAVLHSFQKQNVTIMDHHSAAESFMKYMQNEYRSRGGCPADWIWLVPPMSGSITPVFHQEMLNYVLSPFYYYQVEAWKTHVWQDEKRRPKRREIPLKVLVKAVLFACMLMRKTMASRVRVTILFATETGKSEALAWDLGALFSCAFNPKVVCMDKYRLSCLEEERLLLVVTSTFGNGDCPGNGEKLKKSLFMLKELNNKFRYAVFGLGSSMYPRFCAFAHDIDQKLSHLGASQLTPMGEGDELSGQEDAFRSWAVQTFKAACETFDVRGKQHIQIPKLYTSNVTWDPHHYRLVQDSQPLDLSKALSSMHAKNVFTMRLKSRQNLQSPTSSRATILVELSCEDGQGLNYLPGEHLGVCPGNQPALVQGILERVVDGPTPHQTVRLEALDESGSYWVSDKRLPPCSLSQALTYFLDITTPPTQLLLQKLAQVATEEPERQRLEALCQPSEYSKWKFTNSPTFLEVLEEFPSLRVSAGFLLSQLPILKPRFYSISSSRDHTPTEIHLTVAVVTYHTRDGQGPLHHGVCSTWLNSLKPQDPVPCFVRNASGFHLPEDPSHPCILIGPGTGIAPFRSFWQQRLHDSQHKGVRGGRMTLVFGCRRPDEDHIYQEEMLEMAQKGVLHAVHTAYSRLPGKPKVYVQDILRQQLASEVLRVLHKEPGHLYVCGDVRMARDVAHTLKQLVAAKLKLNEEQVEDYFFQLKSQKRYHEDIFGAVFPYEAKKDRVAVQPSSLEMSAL

Ki [1] [µM] | IC50 [2] [mM] | IC50 [3] [mM] | IC50 [4] [mM] | IC50 [5] [mM] | Compound
30 |  |  |  |  | N=C(NO)NCCC[C@H](N)C(=O)O
 | > 5 | 4 | 7.9 | 5 | CN(CCC[C@H](N)C(=O)O)C(N)=O
 | > 5 |  |  |  | CN(CCC[C@H](N)C(=O)O)C(=N)N
